Reference: US7319098B2, “1,3-dioxoisoindole derivatives having selective antagonism of T-type calcium channel” (Korea Institute of Science and Technology, priority 2006, dated 2008)

Molecular target: T1, α1G T-type Ca2+ channels (Homo sapiens, UniProt O43497)
T1 construct: expressed in transfected cells; host or cells: HEK293 cells stably expressing α1G and Kir2.1
Assay: Screening of activity against T-type calcium channel with FDSS6000 (fluorescence, KCl-induced [Ca2+]i increase)
Assay type: cell-based
Details: HEK293 cells expressing α1G and Kir2.1, read-out: Inhibitory effect (%) of T-type calcium channel, Inhibition (%); for inhibition at 10 µM: NA: Not Active
Procedure: Meanwhile, the antagonistic activity of the novel compound of Formula (1) herein against T-type calcium channel was tested as described below. The synthesized compounds were tested for the activity against T-type calcium channel with FDSS6000. Compounds with good activity were selected and IC50 values were exactly obtained by using electrophysiological whole cell patch clamp method. HEK293 cells which stably express both α1G and Kir2.1 subunits were grown in Dulbecco's modified Eagle's medium supplemented with 10% (v/v) fetal bovine serum, penicillin (100 U/mL), streptomycin (100 μg/mL), geneticin (500 μg/mL), and +puromycin (I μg/mL) at 37° C. in a humid atmosphere of 5% CO2 and 95% air. Cells were seeded into 96-well black wall clear bottom plates at a density of 4×10^4 cells/well and were used the next day for high-throughput screening (HTS) FDSS6000 assay. For FDSS6000 assay, cells were incubated for 60 min at room temperature with 5 μM fluo3/AM and 0.001% Pluronic F-127 in a HEPES-buffered solution composed of (in mM): 115 NaCl, 5.4 KCl, 0.8 MgCl2, 1.8 CaCl2, 20 HEPES, 13.8 glucose (pH 7.4). During the fluorescence-based FDSS6000 assay, cells in HEPES-buffered solution containing 10 mM CaCl2 were pretreated with a certain concentration of test compounds and then treated with high concentration of KCl ([…]). α1G T-type Ca^2+ channels were activated by using high concentration of KCl (70 mM) and the increase in [Ca^2+]i by KCl-induced depolarization was detected. During the whole procedure, cells were washed using the BIO-TEK 96-well washer. All data were collected and analyzed using FDSS6000 and related software (Hamamatsu, Japan). The IC50 results of examining the inhibitory effects of the compounds herein selected with FDSS6000 on the calcium influx through the T-type calcium channel are provided in TABLEs 1 and 2.

T1 sequence (O43497 whole entry): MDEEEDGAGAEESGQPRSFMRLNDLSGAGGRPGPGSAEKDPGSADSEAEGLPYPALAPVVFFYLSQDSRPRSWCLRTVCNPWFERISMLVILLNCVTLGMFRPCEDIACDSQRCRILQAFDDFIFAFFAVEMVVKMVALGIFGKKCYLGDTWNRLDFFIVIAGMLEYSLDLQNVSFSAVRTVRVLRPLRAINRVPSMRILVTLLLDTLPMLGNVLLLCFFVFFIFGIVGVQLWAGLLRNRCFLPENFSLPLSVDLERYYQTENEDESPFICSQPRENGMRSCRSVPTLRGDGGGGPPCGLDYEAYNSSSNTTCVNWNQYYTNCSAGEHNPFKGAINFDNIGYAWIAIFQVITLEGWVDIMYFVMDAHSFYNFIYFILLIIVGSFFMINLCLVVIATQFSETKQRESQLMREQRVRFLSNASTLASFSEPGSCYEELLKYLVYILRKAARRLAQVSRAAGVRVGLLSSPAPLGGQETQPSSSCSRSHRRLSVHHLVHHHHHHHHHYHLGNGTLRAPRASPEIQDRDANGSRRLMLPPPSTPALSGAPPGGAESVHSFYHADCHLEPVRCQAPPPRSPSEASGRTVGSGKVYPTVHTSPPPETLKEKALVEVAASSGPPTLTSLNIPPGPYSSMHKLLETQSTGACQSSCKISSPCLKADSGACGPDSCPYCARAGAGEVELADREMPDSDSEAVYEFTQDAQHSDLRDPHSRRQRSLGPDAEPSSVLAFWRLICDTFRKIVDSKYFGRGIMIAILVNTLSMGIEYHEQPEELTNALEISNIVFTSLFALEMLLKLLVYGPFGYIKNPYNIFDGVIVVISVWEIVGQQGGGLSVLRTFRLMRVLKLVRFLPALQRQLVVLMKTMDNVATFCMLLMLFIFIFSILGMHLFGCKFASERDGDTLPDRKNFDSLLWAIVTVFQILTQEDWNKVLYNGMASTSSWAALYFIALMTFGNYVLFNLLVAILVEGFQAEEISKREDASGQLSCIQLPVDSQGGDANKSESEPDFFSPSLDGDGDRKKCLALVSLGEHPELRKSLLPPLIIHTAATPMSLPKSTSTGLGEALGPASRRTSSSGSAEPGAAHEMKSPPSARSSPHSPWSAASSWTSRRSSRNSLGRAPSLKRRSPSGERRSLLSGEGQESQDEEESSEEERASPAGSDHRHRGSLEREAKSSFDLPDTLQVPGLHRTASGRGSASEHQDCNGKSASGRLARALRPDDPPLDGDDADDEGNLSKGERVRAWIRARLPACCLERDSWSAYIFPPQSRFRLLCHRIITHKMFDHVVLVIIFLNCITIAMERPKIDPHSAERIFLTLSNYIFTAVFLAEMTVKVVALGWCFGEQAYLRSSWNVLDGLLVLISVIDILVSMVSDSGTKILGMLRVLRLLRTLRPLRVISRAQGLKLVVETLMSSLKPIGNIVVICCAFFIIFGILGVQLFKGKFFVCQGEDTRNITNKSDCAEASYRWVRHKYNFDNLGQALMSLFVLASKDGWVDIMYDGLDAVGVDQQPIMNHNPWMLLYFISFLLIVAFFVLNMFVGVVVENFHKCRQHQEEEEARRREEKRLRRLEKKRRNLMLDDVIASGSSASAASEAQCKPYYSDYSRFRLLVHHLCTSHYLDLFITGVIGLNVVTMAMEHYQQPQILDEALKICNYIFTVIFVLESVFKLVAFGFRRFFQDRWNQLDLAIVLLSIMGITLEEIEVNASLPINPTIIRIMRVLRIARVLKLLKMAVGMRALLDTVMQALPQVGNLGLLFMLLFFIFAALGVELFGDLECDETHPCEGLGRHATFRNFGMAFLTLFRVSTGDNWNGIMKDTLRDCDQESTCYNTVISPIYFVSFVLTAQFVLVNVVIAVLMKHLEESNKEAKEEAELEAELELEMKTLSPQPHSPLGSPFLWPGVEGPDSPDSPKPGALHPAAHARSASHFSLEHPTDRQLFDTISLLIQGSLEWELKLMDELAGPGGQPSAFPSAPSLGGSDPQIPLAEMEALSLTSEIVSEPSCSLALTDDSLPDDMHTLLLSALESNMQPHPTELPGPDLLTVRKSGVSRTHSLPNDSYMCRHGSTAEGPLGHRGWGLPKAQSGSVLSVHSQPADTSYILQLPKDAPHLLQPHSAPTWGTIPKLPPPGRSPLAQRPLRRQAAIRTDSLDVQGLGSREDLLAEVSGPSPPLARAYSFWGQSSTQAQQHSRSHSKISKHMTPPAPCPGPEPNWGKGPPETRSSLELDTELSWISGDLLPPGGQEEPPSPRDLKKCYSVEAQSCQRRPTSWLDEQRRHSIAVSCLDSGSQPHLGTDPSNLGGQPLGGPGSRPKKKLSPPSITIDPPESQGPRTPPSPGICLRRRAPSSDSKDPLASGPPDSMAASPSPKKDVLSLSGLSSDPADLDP

inhibition at 100 µM [%] | inhibition at 10 µM [%] | SMILES
22.3 | – | Cc1ccccc1N1C(=O)c2ccc(C(=O)NCCN3CCOCC3)cc2C1=O [Compound 32, 4-{2-[(1,3-dioxo-2-o-tolyl-2,3-dihydro-1H-isoindol-5-carbonyl)-amino]-ethyl}-4-morpholinium chloride]
64.5 | – | Cc1cccc(N2C(=O)c3ccc(C(=O)NCCN4CCCCC4)cc3C2=O)c1 [Compound 33, 1-{2-[(1,3-dioxo-2-m-tolyl-2,3-dihydro-1H-isoindol-5-carbonyl)-amino]-ethyl}-piperidinium chloride]
– | 10 | Cc1cccc(N2C(=O)c3ccc(C(=O)NCCCN4CCCCC4C)cc3C2=O)c1 (centres unmarked) [Compound 34, 1-{3-[(1,3-dioxo-2-m-tolyl-2,3-dihydro-1H-isoindol-5-carbonyl)-amino]-propyl}-2-methyl-piperidinium chloride]
– | 4.7 | Cc1cccc(N2C(=O)c3ccc(C(=O)NCCN4CCCC4)cc3C2=O)c1 [Compound 35, 1-{2-[(1,3-dioxo-2-m-tolyl-2,3-dihydro-1H-isoindol-5-carbonyl)-amino]-ethyl}-pyrrolidinium chloride]
– | 5.3 | Cc1cccc(N2C(=O)c3ccc(C(=O)NCCCN4CCCC4)cc3C2=O)c1 [Compound 36, 1-{3-[(1,3-dioxo-2-m-tolyl-2,3-dihydro-1H-isoindol-5-carbonyl)-amino]-propyl}-pyrrolidinium chloride]
– | 1.3 | Cc1cccc(N2C(=O)c3ccc(C(=O)NCCN4CCOCC4)cc3C2=O)c1 [Compound 37, 4-{2-[(1,3-dioxo-2-m-tolyl-2,3-dihydro-1H-isoindol-5-carbonyl)-amino]-ethyl}-4-morpholinium chloride]
– | 4.2 | Cc1cccc(N2C(=O)c3ccc(C(=O)NCCCN4CCOCC4)cc3C2=O)c1 [Compound 38, 4-{3-[(1,3-dioxo-2-m-tolyl-2,3-dihydro-1H-isoindol-5-carbonyl)-amino]-propyl}-4-morpholinium chloride]
39.4 | – | Cc1ccc(N2C(=O)c3ccc(C(=O)NCCN4CCCCC4)cc3C2=O)cc1 [Compound 39, 1-{2-[(1,3-dioxo-2-p-tolyl-2,3-dihydro-1H-isoindol-5-carbonyl)-amino]-ethyl}-piperidinium chloride]
– | 11.7 | Cc1ccc(N2C(=O)c3ccc(C(=O)NCCCN4CCCCC4C)cc3C2=O)cc1 (centres unmarked) [Compound 40, 1-{3-[(1,3-dioxo-2-p-tolyl-2,3-dihydro-1H-isoindol-5-carbonyl)-amino]-propyl}-2-methyl-piperidinium chloride]
– | 2 | Cc1ccc(N2C(=O)c3ccc(C(=O)NCCN4CCCC4)cc3C2=O)cc1 [Compound 41, 1-{2-[(1,3-dioxo-2-p-tolyl-2,3-dihydro-1H-isoindol-5-carbonyl)-amino]-ethyl}-pyrrolidinium chloride]
31.4 | – | COc1cccc(N2C(=O)c3ccc(C(=O)NCCN4CCCCC4)cc3C2=O)c1 [Compound 46, 1-(2-{[2-(3-methoxy-phenyl)-1,3-dioxo-2,3-dihydro-1H-isoindol-5-carbonyl]-amino}-ethyl)-piperidinium chloride]
31.4 | – | COc1ccc(N2C(=O)c3ccc(C(=O)NCCN4CCCCC4)cc3C2=O)cc1 [Compound 48, 1-(2-{[2-(4-methoxy-phenyl)-1,3-dioxo-2,3-dihydro-1H-isoindol-5-carbonyl]-amino}-ethyl)-piperidinium chloride]
72.4 | – | O=C(NCCN1CCCCC1)c1ccc2c(c1)C(=O)N(Cc1ccccc1)C2=O [Compound 49, 1-{2-[(2-benzyl-1,3-dioxo-2,3-dihydro-1H-isoindol-5-carbonyl)-amino]-ethyl}-piperidinium chloride]
69.6 | – | CC1CCCCN1CCCNC(=O)c1ccc2c(c1)C(=O)N(Cc1ccccc1)C2=O (centres unmarked) [Compound 50, 1-{3-[(2-benzyl-1,3-dioxo-2,3-dihydro-1H-isoindol-5-carbonyl)-amino]-propyl}-2-methyl-piperidinium chloride]
48.4 | – | O=C(NCCN1CCCC1)c1ccc2c(c1)C(=O)N(Cc1ccccc1)C2=O [Compound 51, 1-{2-[(2-benzyl-1,3-dioxo-2,3-dihydro-1H-isoindol-5-carbonyl)-amino]-ethyl}-pyrrolidinium chloride]
45.8 | – | O=C(NCCCN1CCCC1)c1ccc2c(c1)C(=O)N(Cc1ccccc1)C2=O [Compound 52, 1-{3-[(2-benzyl-1,3-dioxo-2,3-dihydro-1H-isoindol-5-carbonyl)-amino]-propyl}-pyrrolidinium chloride]
42.5 | – | O=C(NCCN1CCOCC1)c1ccc2c(c1)C(=O)N(Cc1ccccc1)C2=O [Compound 53, 4-{2-[(2-benzyl-1,3-dioxo-2,3-dihydro-1H-isoindol-5-carbonyl)-amino]-ethyl}-4-morpholinium chloride]
38.5 | – | O=C(NCCCN1CCOCC1)c1ccc2c(c1)C(=O)N(Cc1ccccc1)C2=O [Compound 54, 4-{3-[(2-benzyl-1,3-dioxo-2,3-dihydro-1H-isoindol-5-carbonyl)-amino]-propyl}-4-morpholinium chloride]
79.9 | – | O=C(NCCN1CCCCC1)c1ccc2c(c1)C(=O)N(Cc1ccccc1F)C2=O [Compound 55, 1-(2-{[2-(2-fluoro-benzyl)-1,3-dioxo-2,3-dihydro-1H-isoindol-5-carbonyl]-amino}-ethyl)-piperidinium chloride]
78.8 | – | CC1CCCCN1CCCNC(=O)c1ccc2c(c1)C(=O)N(Cc1ccccc1F)C2=O (centres unmarked) [Compound 56, 1-(3-{[2-(2-fluoro-benzyl)-1,3-dioxo-2,3-dihydro-1H-isoindol-5-carbonyl]-amino}-propyl)-2-methyl-piperidinium chloride]
65.5 | – | O=C(NCCN1CCCC1)c1ccc2c(c1)C(=O)N(Cc1ccccc1F)C2=O [Compound 57, 1-(2-{[2-(2-fluoro-benzyl)-1,3-dioxo-2,3-dihydro-1H isoindol-5-carbonyl]-amino}-ethyl)-pyrrolidinium chloride]
70.6 | – | O=C(NCCCN1CCCC1)c1ccc2c(c1)C(=O)N(Cc1ccccc1F)C2=O [Compound 58, 1-(3-{[2-(2-fluoro-benzyl)-1,3-dioxo-2,3-dihydro-1H-isoindol-5-carbonyl]-amino}-propyl)-pyrrolidinium chloride]
30.2 | – | O=C(NCCN1CCOCC1)c1ccc2c(c1)C(=O)N(Cc1ccccc1F)C2=O [Compound 59, 4-(2-{[2-(2-fluoro-benzyl)-1,3-dioxo-2,3-dihydro-1H-isoindol-5-carbonyl]-amino}-ethyl)-4-morpholinium chloride]
60.8 | – | O=C(NCCCN1CCOCC1)c1ccc2c(c1)C(=O)N(Cc1ccccc1F)C2=O [Compound 60, 4-(3-{[2-(2-fluoro-benzyl)-1,3-dioxo-2,3-dihydro-1H-isoindol-5-carbonyl]-amino}-propyl)-4-morpholinium chloride]
83.5 | – | CC1CCCCN1CCCNC(=O)c1ccc2c(c1)C(=O)N(Cc1cccc(F)c1)C2=O (centres unmarked) [Compound 62, 1-(3-{[2-(3-fluoro-benzyl)-1,3-dioxo-2,3-dihydro-1H-isoindol-5-carbonyl]-amino}-propyl)-2-methyl-piperidinium chloride]
73.4 | – | O=C(NCCN1CCCC1)c1ccc2c(c1)C(=O)N(Cc1cccc(F)c1)C2=O [Compound 63, 1-(2-{[2-(3-fluoro-benzyl)-1,3-dioxo-2,3-dihydro-1H-isoindol-5-carbonyl]-amino}-ethyl)-pyrrolidinium chloride]
